Tests used:
[1] = pH 8.1 aqueous buffer/n-octanol system; cited from earlier work
[2] = Comparative test of solubility of the solid dispersions in polymer; assay type: physicochemical; details: simulated gastric fluid, thermodynamic from solid, simulated gastric juice (pH 1.2), 25° C., itraconazole:hydrophilic polymer=1:1.5 (w/w), n=3, Average ± Standard deviation
[3] = cited from earlier work

- solubility at 24 h [2]: 1.38 ± 0.11 µg/mL
SMILES: CCC(C)n1ncn(-c2ccc(N3CCN(c4ccc(OCC5COC(Cn6cncn6)(c6ccc(Cl)cc6Cl)O5)cc4)CC3)cc2)c1=O (mixture of isomers) [itraconazole, (±)-cis-4-[4-[4-[4-[[2-(2,4-dichlorophenyl)-2-(1H-1,2,4-triazol-1-ylmethyl)-1,3-dioxolan-4-yll]methoxy]phenyl]-1-piperazinyl]phenyl]-2,4-dihydro-2-(1-methylpropyl)-3H-1,2,4-triazol-3-one]
- oil/water partition coefficient [1]: 5.66
- solubility in diluted acidic solution ([3]; diluted acidic solution): less than 5 μg/ml
- solubility in water ([3]; water): less than 1 μg/ml

Source: patent US6485743B1, “Method and composition of an oral preparation of itraconazole” (Choongwae Pharma Corporation, priority 1997, dated 2002)
